Source: the supplement of paper PMC10307832

compound: CC1=C(N=C(N=C1N)[C@H](CC(=O)N)NC[C@@H](C(=O)N)N)C(=O)N[C@@H]([C@H](C2=CN=CN2)OC3C(C(C(C(O3)CO)O)O)OC4C(C(C(C(O4)CO)O)OC(=O)N)O)C(=O)N[C@H](C)[C@H]([C@H](C)C(=O)N[C@@H]([C@@H](C)O)C(=O)NCCC5=NC(=CS5)C6=NC(=CS6)C(=O)NCCC[S+](C)C)O [Bleomycin] + O=C(c1cc(Cc2n[nH]c(=O)c3ccccc23)ccc1F)N1CCN(C(=O)C2CC2)CC1 [Olaparib] (partner 8 µM); assay: relative viability (nuclei count vs DMSO), 5 days (fraction); higher = more cells survive; conditions: first compound 1 µM; main component drawn
Method in brief: (§1)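 For relative viability, nuclei counts in treated wells were divided by those in vehicle wells. Lung cancer cell lines had been pin-tool dosed in 1536-well plates the day after seeding and cultured for 5 days, then fixed and stained in one step (final 0.05% Triton X-100, 1% formaldehyde, 1 ug/ml Hoechst) and imaged at 4×. Doses were one drug alone or a fixed anchor-drug dose plus five library-drug doses (not always all listed) in √10 steps, and values are duplicate-plate medians.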

NCI-H322M showed a relative viability of 0.447.

compound: COc1cc([C@@H]2c3cc4c(cc3[C@@H](O[C@@H]3O[C@@H]5CO[C@@H](C)O[C@H]5[C@H](O)[C@H]3O)[C@H]3COC(=O)[C@H]23)OCO4)cc(OC)c1O [Etoposide] + Nc1ncn([C@H]2C[C@H](O)[C@@H](CO)O2)c(=O)n1 [Decitabine] (partner 2 µM); assay: as above; conditions: first compound 0.01 µM
Method in brief: as §1

First: LOU-NH91
Second: ChaGo-K-1
The relative viability of the first is higher: 0.783 for the first, 0.448 for the second.

First: NCI-H2170
Second: NCI-H3122
The relative viability of the first is lower: 0.463 for the first, 0.465 for the second.

Going from HOP-62 to HCC-44, the relative viability rises from 0.227 to 1.

Going from LU99A to BEN, the relative viability falls from 0.893 to 0.742.

Compared with HARA, HCC-78 is higher in relative viability: 0.556 for the first, 0.669 for the second.

Going from NCI-H441 to LCLC-97TM1, the relative viability falls from 0.273 to 0.253.

Compared with A-427, NCI-H460 is lower in relative viability: 0.54 for the first, 0.432 for the second.

Going from NCI-H727 to NCI-H1734, the relative viability falls from 1.11 to 0.517.

Compared with NCI-H2405, NCI-H1395 is lower in relative viability: 0.732 for the first, 0.726 for the second.

First: 201T
Second: NCI-H1915
The relative viability of the first is higher: 0.835 for the first, 0.267 for the second.

Compared with HCC-827, LXF-289 is higher in relative viability: 0.294 for the first, 0.378 for the second.

Going from NCI-H2347 to NCI-H650, the relative viability falls from 0.6 to 0.318.

First: NCI-H1651
Second: EPLC-272H
The relative viability of the first is higher: 0.612 for the first, 0.339 for the second.

Compared with NCI-H23, NCI-H1792 is higher in relative viability: 0.333 for the first, 0.515 for the second.

First: NCI-H1355
Second: NCI-H322M
The relative viability of the first is lower: 0.362 for the first, 0.71 for the second.

same assay, conditions: first compound 0.03162 µM

Going from LOU-NH91 to ChaGo-K-1, the relative viability falls from 0.876 to 0.546.

First: NCI-H2170
Second: NCI-H3122
The relative viability of the first is lower: 0.449 for the first, 0.536 for the second.

Compared with HOP-62, HCC-44 is higher in relative viability: 0.199 for the first, 1.06 for the second.

Going from LU99A to BEN, the relative viability falls from 0.928 to 0.769.

Compared with HARA, HCC-78 is higher in relative viability: 0.578 for the first, 0.697 for the second.

First: NCI-H441
Second: LCLC-97TM1
The relative viability of the first is higher: 0.239 for the first, 0.222 for the second.

First: A-427
Second: NCI-H460
The relative viability of the first is higher: 0.549 for the first, 0.454 for the second.

Compared with NCI-H727, NCI-H1734 is lower in relative viability: 0.985 for the first, 0.513 for the second.

Compared with NCI-H2405, NCI-H1395 is lower in relative viability: 0.808 for the first, 0.755 for the second.

Compared with 201T, NCI-H1915 is lower in relative viability: 0.886 for the first, 0.261 for the second.

Compared with HCC-827, LXF-289 is higher in relative viability: 0.328 for the first, 0.383 for the second.

Going from NCI-H2347 to NCI-H650, the relative viability falls from 0.628 to 0.339.

Going from NCI-H1651 to EPLC-272H, the relative viability falls from 0.688 to 0.412.

Going from NCI-H23 to NCI-H1792, the relative viability rises from 0.317 to 0.741.

Compared with NCI-H1355, NCI-H322M is higher in relative viability: 0.384 for the first, 0.696 for the second.

same assay, conditions: first compound 0.1 µM

Going from LOU-NH91 to ChaGo-K-1, the relative viability falls from 0.778 to 0.397.

Going from NCI-H3122 to HOP-62, the relative viability falls from 0.384 to 0.212.

Compared with HCC-44, LU99A is lower in relative viability: 0.984 for the first, 0.504 for the second.

Going from HARA to HCC-78, the relative viability falls from 0.573 to 0.429.

First: NCI-H441
Second: LCLC-97TM1
The relative viability of the first is lower: 0.241 for the first, 0.302 for the second.

Going from A-427 to NCI-H460, the relative viability falls from 0.477 to 0.319.

First: NCI-H727
Second: NCI-H1734
The relative viability of the first is higher: 0.681 for the first, 0.454 for the second.

Going from NCI-H2405 to NCI-H1395, the relative viability rises from 0.563 to 0.681.

Compared with 201T, NCI-H1915 is lower in relative viability: 0.758 for the first, 0.256 for the second.

Going from HCC-827 to LXF-289, the relative viability falls from 0.315 to 0.306.

First: NCI-H2347
Second: NCI-H650
The relative viability of the first is higher: 0.573 for the first, 0.278 for the second.

First: NCI-H1651
Second: EPLC-272H
The relative viability of the first is higher: 0.442 for the first, 0.338 for the second.

First: NCI-H23
Second: NCI-H1355
The relative viability of the first is lower: 0.291 for the first, 0.363 for the second.

Work on NCI-H322M yielded a relative viability of 0.584.

same assay, conditions: first compound 0.3162 µM

Going from LOU-NH91 to ChaGo-K-1, the relative viability falls from 0.766 to 0.291.

Going from NCI-H2170 to NCI-H3122, the relative viability falls from 0.386 to 0.385.

Compared with HOP-62, HCC-44 is higher in relative viability: 0.207 for the first, 0.905 for the second.

First: LU99A
Second: BEN
The relative viability of the first is lower: 0.473 for the first, 0.692 for the second.

Compared with HARA, HCC-78 is lower in relative viability: 0.399 for the first, 0.317 for the second.

Compared with NCI-H441, LCLC-97TM1 is lower in relative viability: 0.213 for the first, 0.129 for the second.

First: A-427
Second: NCI-H460
The relative viability of the first is higher: 0.354 for the first, 0.105 for the second.

Compared with NCI-H727, NCI-H1734 is lower in relative viability: 0.796 for the first, 0.379 for the second.

First: NCI-H2405
Second: NCI-H1395
The relative viability of the first is lower: 0.519 for the first, 0.667 for the second.

First: 201T
Second: NCI-H1915
The relative viability of the first is higher: 0.641 for the first, 0.26 for the second.

First: HCC-827
Second: LXF-289
The relative viability of the first is lower: 0.205 for the first, 0.307 for the second.

Compared with NCI-H2347, NCI-H650 is lower in relative viability: 0.443 for the first, 0.205 for the second.

Going from NCI-H1651 to EPLC-272H, the relative viability rises from 0.241 to 0.328.

Compared with NCI-H23, NCI-H1792 is higher in relative viability: 0.235 for the first, 0.5 for the second.

Compared with NCI-H1355, NCI-H322M is higher in relative viability: 0.279 for the first, 0.623 for the second.

same assay, conditions: first compound 1 µM

First: LOU-NH91
Second: ChaGo-K-1
The relative viability of the first is higher: 0.54 for the first, 0.229 for the second.

Going from NCI-H2170 to NCI-H3122, the relative viability falls from 0.342 to 0.249.

Compared with HOP-62, HCC-44 is higher in relative viability: 0.179 for the first, 0.55 for the second.

Going from LU99A to BEN, the relative viability rises from 0.246 to 0.476.

Going from HARA to HCC-78, the relative viability falls from 0.301 to 0.265.

Going from NCI-H441 to LCLC-97TM1, the relative viability falls from 0.169 to 0.11.

First: A-427
Second: NCI-H460
The relative viability of the first is higher: 0.275 for the first, 0.0405 for the second.

Compared with NCI-H727, NCI-H1734 is lower in relative viability: 0.63 for the first, 0.314 for the second.

Going from NCI-H2405 to NCI-H1395, the relative viability rises from 0.328 to 0.653.

First: 201T
Second: NCI-H1915
The relative viability of the first is higher: 0.384 for the first, 0.245 for the second.

Going from HCC-827 to LXF-289, the relative viability rises from 0.182 to 0.194.

Compared with NCI-H2347, NCI-H650 is lower in relative viability: 0.411 for the first, 0.174 for the second.

First: NCI-H1651
Second: EPLC-272H
The relative viability of the first is lower: 0.128 for the first, 0.297 for the second.

Compared with NCI-H23, NCI-H1792 is higher in relative viability: 0.242 for the first, 0.331 for the second.

In the case of NCI-H1355, the relative viability is reported as 0.287.
